Source: article PMC12348509, “Classical Paal-Knorr Cyclization for Synthesis of Pyrrole-Based Aryl Hydrazones and In Vitro/In Vivo Evaluation on Pharmacological Models of Parkinson’s Disease” (Molecules, 2025)

Key:
MAOB = test system: MAOB; design: method as in PMID 36500572; conditions: 1 μmol; cited from earlier work
[1] = test system: Rotenone-induced model of Parkinsonism in mice; assay: Rotenone-induced model of Parkinsonism in mice, brain histopathology (H&E); type: in vivo
Description: The histological morphology of the mouse brains, mainly the areas of the […] and cerebellum, was examined microscopically.
The samples from mouse brains were fixed in 10% buffered neutral formalin solution. The fixed materials were dehydrated in ascending grades of alcohol: 50°, 60°, 70°, 80°, 90°, 96°, and absolute alcohol. After dehydration, the samples were cleared with xylene and embedded in paraffin blocks. Sections with a thickness of 5 μm were prepared using a rotary microtome. The sections were attached to slides using histological glue, processed with xylene, rehydrated using a descending alcohol row–absolute alcohol, 96°, 90°, 80°, 70°, 60°, and 50°, and finally stained with Hematoxylin-Eosin [57]. Microscopic examination and photography were performed using a Levenhuk D740T light microscope with an integrated camera.

rat brain mitochondria [2] = assay: GSH level in brain mitochondria, substances applied alone; conditions: 100 µM, vs untreated mitochondria
rat brain microsomes [3] = assay: MDA production in brain microsomes, substances applied alone; type: cell-based; conditions: 100 µM, vs untreated microsomes
Description: The brain was homogenized in nine volumes of 0.1 M Tris buffer containing 0.1 mM dithiothreitol, 0.1 mM phenylmethylsulfonyl fluoride, 0.2 mM EDTA, 1.15% KCl, and 20% (v/v) glycerol (pH 7.4). The resulting homogenate was centrifuged twice at 17,000× g for 30 min. The supernatants from the two centrifugations were pooled and centrifuged twice at 100,000× g for 1 h. The pellet was then frozen in 0.1 M Tris buffer.

rat brain mitochondria [4] = assay: MDA production in brain mitochondria, substances applied alone; type: cell-based; conditions: 100 µM, vs untreated mitochondria
Description: To the mitochondria, 0.3 mL of 0.2% thiobarbituric acid and 0.25 mL of sulfuric acid (0.05 M) were added, and the mixture was boiled for 30 min. After boiling, the tubes were placed on ice, and 0.4 mL of n-butanol was added to each tube, which was then centrifuged at 3500× g for 10 min. The amount of MDA was determined spectrophotometrically at 532 nm.

rat brain microsomes [5] = conditions: 100 µM combined with Fe2+/AA
[6] = target: T1, human recombinant MAOB enzyme (hMAOB) (Homo sapiens, UniProt P27338); assay: Human recombinant MAOB enzyme activity (Amplex Red, fluorimetric); type: biochemical; conditions: for inhibition at 1 µM: read-out: hMAOB inhibitory effect (decrease of enzyme activity); for IC50: read-out: IC50 (EC50), (µM ± SD) hMAOB
T1 construct: purchased
T1 sequence (P27338 1-520): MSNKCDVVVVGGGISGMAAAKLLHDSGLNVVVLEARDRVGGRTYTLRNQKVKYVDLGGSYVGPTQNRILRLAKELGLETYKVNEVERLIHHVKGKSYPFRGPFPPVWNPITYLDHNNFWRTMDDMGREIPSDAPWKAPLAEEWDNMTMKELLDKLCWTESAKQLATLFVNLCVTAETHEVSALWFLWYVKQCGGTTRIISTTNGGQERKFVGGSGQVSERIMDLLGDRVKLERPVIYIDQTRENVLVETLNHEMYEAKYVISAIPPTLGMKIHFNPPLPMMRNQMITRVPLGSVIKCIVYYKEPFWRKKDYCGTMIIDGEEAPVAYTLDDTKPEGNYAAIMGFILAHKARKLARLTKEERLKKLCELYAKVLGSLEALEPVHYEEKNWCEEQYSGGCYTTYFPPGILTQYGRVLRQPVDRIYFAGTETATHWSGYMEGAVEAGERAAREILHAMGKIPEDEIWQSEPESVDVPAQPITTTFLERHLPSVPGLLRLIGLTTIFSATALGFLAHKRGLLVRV
Description: (§1) Working solutions of the test substances, reagents, and human recombinant MAOA/B enzyme (hMAOA/B) were prepared in a reaction buffer according to the manufacturer’s instructions. The substances were applied at a final concentration of 1 µM. The substances, together with hMAOA/B, were placed in a 96-well plate (eight samples for each substance), and the plate was placed in an incubator for 30 min (in the dark, at 37 °C). The activity of recombinant human MAOA/B was determined fluorimetrically at two wavelengths (570 nm and 690 nm) with fluorimetric readings performed in a Synergy 2 Microplate Reader. Tyramine hydrochloride was used as the substrate. The activity was determined by detecting H2O2 production. This production is reported by binding to horseradish peroxidase using N-acetyl-3,7-dihydroxyphenoxazine (AmplexRed, Thermo Fisher Scientific, Waltham, MA, USA).

[7] = target: T2, human recombinant MAOA enzyme (hMAOA) (Homo sapiens, UniProt P21397); assay: Human recombinant MAOA enzyme activity (Amplex Red, fluorimetric); type: biochemical; conditions: for IC50: read-out: IC50 (EC50), (µM ± SD) hMAOA
T2 construct: purchased
T2 sequence (P21397 1-527): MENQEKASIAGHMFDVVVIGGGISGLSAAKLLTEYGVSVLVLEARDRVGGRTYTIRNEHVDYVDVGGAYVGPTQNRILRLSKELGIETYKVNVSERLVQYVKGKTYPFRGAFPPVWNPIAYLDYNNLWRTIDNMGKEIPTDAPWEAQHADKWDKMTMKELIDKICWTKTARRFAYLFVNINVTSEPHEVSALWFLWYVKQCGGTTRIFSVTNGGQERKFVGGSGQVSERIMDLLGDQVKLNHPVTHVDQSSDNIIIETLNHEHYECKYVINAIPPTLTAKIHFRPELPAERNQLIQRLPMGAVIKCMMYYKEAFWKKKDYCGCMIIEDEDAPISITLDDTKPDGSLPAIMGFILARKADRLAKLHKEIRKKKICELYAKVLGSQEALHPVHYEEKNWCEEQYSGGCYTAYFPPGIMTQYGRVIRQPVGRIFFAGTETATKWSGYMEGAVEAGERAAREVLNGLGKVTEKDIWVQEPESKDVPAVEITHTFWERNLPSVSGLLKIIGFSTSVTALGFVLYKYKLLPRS
Description: as §1

rat brain mitochondria [8] = conditions: 100 µM combined with t-BuOOH
[9] = 150 µM, vs untreated synaptosomes
[10] = 100 µM with 6-OHDA 150 µM, compared to the toxic agent

| Compound | decrease of GSH level in brain mitochondria vs control (rat brain mitochondria [2]) | increase of MDA production in brain microsomes vs control (rat brain microsomes [3]) | increase of MDA production in brain mitochondria vs control (rat brain mitochondria [4]) | other results |
| --- | --- | --- | --- | --- |
| CCOC(=O)c1cc(-c2ccc(Br)cc2)n(CCC(=O)NN)c1C [compound 12] | – | – | – | MAOB inhibition (MAOB): 50% |
| C=C(C)[C@H]1Cc2c(ccc3c2O[C@@H]2COc4cc(OC)c(OC)cc4[C@@H]2C3=O)O1 [rotenone, reference compound] | – | – | – | brain histology, rotenone alone ([1]; cerebral cortex of mice treated with rotenone): distinct degenerative-necrotic changes |
| NCCc1cc(O)c(O)cc1O [6-OHDA, 6-hydroxydopamine, reference compound] | – | – | – | decrease of GSH level in synaptosomes by the toxic agent alone (rat brain synaptosomes; [9]): 50%; decrease of synaptosomal viability by the toxic agent alone (rat brain synaptosomes; [9]): 50% |
| CCOC(=O)c1cc(-c2ccc(Br)cc2)n(CC(=O)NN)c1C [compound 11] | – | – | – | MAOB inhibition (MAOB): 26% |
| CCOC(=O)c1cc(-c2ccc(Br)cc2)n(CCCC(=O)NN)c1C [compound 15, Ethyl 5-(4-bromophenyl)-1-(4-hydrazinyl-4-oxobutyl)-2-methyl-1H-pyrrole-3-carboxylate] | 25% | – | 73% | – |
| CCOC(=O)c1cc(-c2ccc(Br)cc2)n(CCCC(=O)N/N=C/c2ccc(N(C)C)cc2)c1C [15f, (E)-Ethyl 5-(4-bromophenyl)-1-(4-(2-(4-(dimethylamio)benzylidene)hydrazinyl)-4-oxobutyl)-2-methyl-1H-pyrrole-3-carboxylate] | 15% | 67% | 69% | SI: hMAOB selectivity index = IC50(hMAOA)/IC50(hMAOB) [6]: 1.16; hMAOB inhibitory effect (decrease of enzyme activity) ([6]; 1 µM, vs control (pure hMAOB)): 45%; IC50 [6]: 0.71 µM; hMAOA inhibitory effect (decrease of enzyme activity) ([7]; 1 µM, vs control (pure hMAOA)): 40%; IC50 [7]: 0.821 µM |
| CCOC(=O)c1cc(-c2ccc(Br)cc2)n(CCCC(=O)O)c1C [compound 13, 4-(5-(4-Bromophenyl)-3-(ethoxycarbonyl)-2-methyl-1H-pyrrole-1-yl)butanoic acid] | 15% | 93% | 79% | – |

More lines, main results first:

| decrease of GSH level in brain mitochondria vs control (rat brain mitochondria [2]) | increase of MDA production in brain microsomes vs control (rat brain microsomes [3]) | increase of MDA production in brain mitochondria vs control (rat brain mitochondria [4]) | Compound | other results |
| --- | --- | --- | --- | --- |
| 25% | 132% | 110% | CCOC(=O)c1cc(-c2ccc(Br)cc2)n(CCCC(=O)N/N=C/c2ccccc2F)c1C [15c, (E)-Ethyl 5-(4-bromophenyl)-1-(4-(2-(2-fluorobenzylidene)hydrazinyl)-4-oxobutyl)-2-methyl-1H-pyrrole-3-carboxylate] | – |
| 15% | 52% | 59% | CCOC(=O)c1cc(-c2ccc(Br)cc2)n(CCCC(=O)N/N=C/c2ccccc2)c1C [15a, (E)-Ethyl 1-(4-(2-benzylidenehydrazinyl)-4-oxobutyl)-5-(4-bromophenyl)-2-methyl-1H-pyrrole-3-carboxylate] | antioxidant effect vs Fe2+/AA (MDA production) (rat brain microsomes [5]): most prominent effect on MDA production; SI: hMAOB selectivity index = IC50(hMAOA)/IC50(hMAOB) [6]: >289; inhibition at 1 µM ([6]; 1 µM, vs control (pure hMAOB)): 50%; IC50 [6]: 0.692 µM; IC50 [7]: > 200 µM |
| 20% | 149% | 119% | CCOC(=O)c1cc(-c2ccc(Br)cc2)n(CCCC(=O)N/N=C/c2ccc(OC)cc2)c1C [15e, (E)-Ethyl 5-(4-bromophenyl)-1-(4-(2-(4-methoxybenzylidene)hydrazinyl)-4-oxobutyl)-2-methyl-1H-pyrrole-3-carboxylate] | – |
| 20% | 158% | 143% | CCOC(=O)c1cc(-c2ccc(Br)cc2)n(CCCC(=O)N/N=C/c2cccc(C=O)c2)c1C [15g, (E)-Ethyl 5-(4-bromophenyl)-1-(4-(2-(3-formylbenzylidene)hydrazinyl)-4-oxobutyl)-2-methyl-1H-pyrrole-3-carboxylate] | – |
| 25% | 121% | 99% | CCOC(=O)c1cc(-c2ccc(Br)cc2)n(CCCC(=O)N/N=C/c2ccccc2O)c1C [15b, (E)-Ethyl 5-(4-bromophenyl)-1-(4-(2-(2-hydroxybenzylidene)hydrazinyl)-4-oxobutyl)-2-methyl-1H-pyrrole-3-carboxylate] | – |
| 10% | 63% | 57% | CCOC(=O)c1cc(-c2ccc(Br)cc2)n(CCCC(=O)N/N=C/c2cccc(F)c2)c1C [15d, (E)-Ethyl 5-(4-bromophenyl)-1-(4-(2-(3-fluorobenzylidene)hydrazinyl)-4-oxobutyl)-2-methyl-1H-pyrrole-3-carboxylate] | preservation of GSH level vs 6-OHDA (rat brain synaptosomes; [10]): 20%; preservation of synaptosomal viability vs 6-OHDA (rat brain synaptosomes; [10]): 15%; neuroprotective effect vs t-BuOOH (GSH level and MDA production) (rat brain mitochondria [8]): most pronounced neuroprotection; SI: hMAOB selectivity index = IC50(hMAOA)/IC50(hMAOB) [6]: >471; inhibition at 1 µM ([6]; 1 µM, vs control (pure hMAOB)): 60%; IC50 [6]: 0.425 µM; IC50 [7]: > 200 µM; brain histology, in combination with rotenone ([1]; mice treated with rotenone plus 15d, light microscopy): preserved histoarchitectonics; brain histology, treated alone ([1]; mouse, in vivo): no microscopically visible changes |
